Test results reported in patent publication US7799913B2, “Carbonylbenzoxazine compounds for enhancing glutamatergic synaptic responses” (Cortex Pharmaceuticals, Inc., priority 2001, dated 2010).

What was measured:
AMPA receptors = assay: field EPSP amplitude in field CA1 of rat hippocampal slice; format: cell-based; details: for AMP: concentration of modulator that increases the amplitude of the fEPSP by 10%: rat hippocampal slice
Description: The field EPSP, (excitatory post-synaptic potential) recorded in field CA1 after stimulation of CA3 axons is known to be mediated by AMPA receptors, which are present in the synapses (Kessler et al., Brain Res. 560: 337-341 (1991)). Drugs that selectively block the receptor selectively block the field EPSP (Muller et al., Science, supra). […] These effects are mirrored in the field EPSP (see, for example, Staubli et al., Psychobiology, supra; Xiao et al., Hippocampus, supra; Staubli et al., Hippocampus 2: 4958 (1992)).
To obtain the data shown in Table I, a bipolar nichrome stimulating electrode was positioned in the dendritic layer (stratum radiatum) of the hippocampal subfield CA1 close to the border of subfield CA3, as described in Example 64. Current pulses (0.1 msec) through the stimulating electrode activate a population of the Schaffer-commissural (SC) fibers, which arise from neurons in the subdivision CA3 and terminate in synapses on the dendrites of CA1 neurons. Activation of these synapses causes them to release the transmitter glutamate. Glutamate binds to post-synaptic AMPA receptors, which then transiently open an associated ion channel and permit a sodium current to enter the postsynaptic cell. This current results in a voltage in the extracellular space (the field EPSP), which is recorded by a high impedance recording electrode positioned in the middle of the stratum radiatum of CA1.
The intensity of the stimulation current was adjusted to produce half-maximal EPSPs (typically about 1.5-2.0 mV). Paired stimulation pulses were given every 40 sec with an interpulse interval of 200 msec, as described further in Example 64.
Hippocampal slices were maintained in a recording chamber continuously perfused with artificial cerebrospinal fluid (ACSF). During 15-30 minute intervals, the perfusion medium was switched to one containing various concentrations of the test compounds. Responses collected immediately before and at the end of drug perfusion were superimposed in order to calculate the percent increase in EPSP amplitude.
(§1) The physiological effects of invention compounds were tested in vitro on primary cultures of rat cortical neurons as described by Hamill, O P, et al. in Pflügers Arch 391: 85-100 (1981) or on slices of rat hippocampus according to the following procedure. Excitatory responses (field EPSPs) were measured in hippocampal slices, which were maintained in a recording chamber continuously perfused with artificial cerebrospinal fluid (ACSF). During a 15-30 minute interval, the perfusion medium was switched to one containing various concentrations of the test compounds. Responses collected immediately before and at the end of drug perfusion were superimposed in order to calculate the percent increase in EPSP amplitude.
To conduct these tests, the hippocampus was removed from anesthetized, 2 month old Sprague-Dawley rats and in vitro slices (400 μm thick) were prepared and maintained in an interface chamber at 35° C. using conventional techniques [see, for example, Dunwiddie and Lynch, J. Physiol. 276: 353-367 (1978)]. The chamber was constantly perfused at 0.5 mL/min with ACSF containing (in mM): NaCl 124, KCl 3, KH2PO4 1.25, MgSO4 2.5, CaCl2 3.4, NaHCO3 26, glucose 10 and L-ascorbate 2. A bipolar nichrome stimulating electrode was positioned in the dendritic layer (stratum radiatum) of the hippocampal subfield CA1 close to the border of subfield CA3.
Current pulses (0.1 msec) through the stimulating electrode activate a population of the Schaffer-commissural (SC) fibers, which arise from neurons in the subdivision CA3 and terminate in synapses on the dendrites of CA1 neurons. Activation of these synapses causes them to release the transmitter glutamate. Glutamate binds to the post-synaptic AMPA receptors, which then transiently open an associated ion channel and permit a sodium current to enter the postsynaptic cell. […]

AMPA receptor = assay: steady-state current induced by glutamate in cortical neurons in primary culture; format: cell-based, rat; details: for EC2X: concentration of modulator required to double the steady state current: 300 μM glutamate on cultured neurons
Method: as §1

[1] = eight-arm radial maze task for cognition/memory enhancement; format: in vivo
Description: This task has been described previously (Staubli et al., PNAS 91:777-781 (1994)) and Lynch and Rogers, PCT Pubn. No. WO 94/02475).
This test has been described previously by Staubli et al., PNAS 91:777-781 (1994) and Lynch and Rogers, U.S. Pat. No. 5,747,492.

SMILES	AMP: concentration of modulator that increases the amplitude of the fEPSP by 10% (AMPA receptors) [µM]	EC2X: concentration of modulator required to double the steady state current (AMPA receptor) [µM]	other results
O=C(c1ccc2c(c1)OC1CCCN1C2=O)N1CCCCC1 (racemic) [Example 5, (R,S)-6-(Piperidylcarbonyl)-3aH-benzo[e]pyrrolidino[2,1-b]1,3-oxazaperhydroin-9-one]	10	2	
O=C1c2cc3nc4n(c(=O)c3cc2OC2CCCN12)CCC4 (racemic) [Example 6, (R,S)-6a-hydro-3aH-pyrrolidino[2,1-b]pyrrolidino[2′,1′-2,3]quinazolino[7,6-e]1,3-oxazaperhydroine-6,12-dione]	100	1.4	
CC1CCN(C(=O)c2ccc3c(c2)OC2CCCN2C3=O)CC1 (racemic) [Example 18, (R,S)-6-[(4-methylpiperidyl)carbonyl]-3aH-benzo[e]pyrrolidino[2,1-b]1,3-oxazin-9-one]	100	4	
CN1COc2cc3c(cc2C1=O)OC1CCCN1C3=O (racemic) [Example 22, (R,S)-3-methyl-2H,6aH-pyrrolidino[2″,1″-3′,2′]1,3-oxazino[5′,6′-4,5]benzo[e]1,3-oxazaperhydroine-4,10-dione]	10	0.2	melting point: 195 to 196 °C
O=C1CCCN1CCCN1COc2cc3c(cc2C1=O)OC1CCCN1C3=O (racemic) [Example 27, (R,S)-3-[3-(2-oxopyrrolidinyl)propyl]-2H,6aH-pyrrolidino[2″,1″-3′,2′]1,3-oxazino[5′,6′-4,5]benzo[e]1,3-oxazaperhydroine-4,10-dione]	10	1	melting point: 189 to 190 °C
O=C1c2cc3c(cc2OCN1Cc1ccc2c(c1)OCO2)C(=O)N1CCCC1O3 (racemic) [Example 28, (R,S)-3-(2H-benzo[d]1,3-dioxolen-5-ylmethyl)-2H,6aH-pyrrolidino[2″,1″-3′,2′]1,3-oxazino[5′,6′-4,5]benzo[e]1,3-oxazaperhydroine-4,10-dione]	10	6	
O=C(c1ccc2nccnc2c1)N1CCCCC1 [CX516, 1-(quinoxaline-6-ylcarbonyl)piperidine, reference compound]	80	830	Amp: concentration of compound that causes a 10% increase in the amplitude of the field EPSP (AMPA receptors; field CA1 of rat hippocampal slice, estimated by interpolation or extrapolation): 80 µM; EC2x: concentration of compound that causes at least a doubling of the steady-state current (AMPA receptor; cortical neurons in primary culture, 300 μM glutamate): 830 µM; MEDC: Minimum Effective Dose that produces a statistically significant improvement in behavior ([1]; eight-arm radial maze task): 12.5 mg/kg
O=C1c2cc3c(cc2OC2CCCN12)C(=O)N1CCCC1O3 [Example 1, (R,S), (R,S)-3aH,9aH-pyrrolidino[2,1-b]pyrrolidino[2″,1″-2′,3′](1,3-oxazino)[5′,6′-2,1]benzo[4,5-e]1,3-oxazaperhydroine-6,12-dione]			potency relative to CX516 (times more potent) ([1]; eight-arm radial maze MEDC): 250
O=C1c2cc3c(cc2OC2CCCN12)OC1CCCN1C3=O [Example 2, (R,S), (R,S)-3aH,6aH-pyrrolidino[2,1-b]pyrrolidino[2″,1″-3′,2′](1,3-oxazino)[6′,5′-2,1]benzo[4,5-e]1,3-oxazaperhydroine-10,12-dione]	>10	2.6	
O=C1c2cc3c(cc2OC2CCCN12)C(=O)N1CCOC1O3 [Example 11, (R,S), (R,S)-2H,3H,12aH,6aH-1,3-oxazolidino[2,3-b]pyrrolidino[2″,1″-2′,3′](1,3-oxazino)[5′,6′-2,1]benzo[4,5-e]1,3-oxazaperhydroine-4,10-dione]	1	0.09	
CCN1COc2cc3c(cc2C1=O)OCN(CC)C3=O [Example 21, 3,8-diethyl-2H,7H-1,3-oxazaperhydroino[5′,6′-4,5]benzo[e]1,3-oxazine-4,9-dione]	10	1.8	melting point: 236 to 237 °C
CCN1COc2cc(C(=O)C3CCCCC3)ccc2C1=O [Example 38, 7-(cyclohexylcarbonyl)-3-ethyl-2H-benzo[e]1,3-oxazaperhydroin-4-one]	30	15	
O=C1c2cc3c(cc2OC2CCCN12)C(=O)N1OCCC1O3 [Example 46, (R,S), (R,S)-2H,3H,3aH,9aH--1,2-oxazolidino[3,2-b]pyrrolidino[2″,1″-3′,2′](1,3-oxazino)[5′,6′-5,4]benzo[e]1,3-oxazaperhydroine-6,12-dione]	3	2.4	
